Test results as given in ChEMBL document CHEMBL1201862, “PubChem BioAssay data set” (2004).
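Exposure lasted 48 hours, with cells grown in 96-well plates and compounds tested at five concentrations. At the GI50, growth is halved.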 Active and inactive are the calls of the source. Rule as the data show it: active = GI50 up to about 1.1 µM and inactive = higher.

How the values were obtained:
Experiment in all cases: growth of human tumour cells (NCI), 48 h
[1] = tested on: NCI-H522
[2] = tested on: A498
[3] = tested on: HOP-92
[4] = tested on: CAKI-1
[5] = tested on: IGROV-1
[6] = tested on: UACC-62
[7] = tested on: SF-295
[8] = tested on: OVCAR-4
[9] = tested on: T47D
[10] = tested on: HCT-15
[11] = tested on: NCI-H460
[12] = tested on: HCC 2998
[13] = tested on: KM12
[14] = tested on: SF-539
[15] = tested on: NCI/ADR-RES
[16] = tested on: K562
[17] = tested on: TK-10
[18] = tested on: SK-MEL-5
[19] = tested on: RPMI-8226

For `COc1ccc([S+]([O-])Cc2cc(OC)ccc2OC)cc1` (configuration not stated), the GI50 [1] was > 100 µM (inactive), the GI50 [2] was > 100 µM (inactive) and the GI50 [3] was > 100 µM (inactive). For the same compound, the GI50 [4] was > 100 µM (inactive), the GI50 [5] was > 100 µM (inactive) and the GI50 [6] was > 100 µM (inactive). The GI50 [7] was > 100 µM (inactive), the GI50 [8] was > 100 µM (inactive) and the GI50 [9] was > 100 µM (inactive). The GI50 [10] was over 100 µM, the GI50 [11] was > 100 µM (inactive) and the GI50 [12] was > 100 µM (inactive). For the same compound, the GI50 [13] was > 100 µM (inactive), the GI50 [14] was > 100 µM (inactive) and the GI50 [15] was > 100 µM (inactive). The GI50 [16] was > 100 µM (inactive) and the GI50 [17] was > 100 µM (inactive).
With `O=P(NCCCO)(OCc1ccccc1)N(CCCl)CCCl` (configuration not stated) the GI50 [1] was > 100 µM (inactive), the GI50 [2] was > 100 µM (inactive) and the GI50 [3] was > 100 µM (inactive). For the same compound, the GI50 [4] was > 100 µM (inactive), the GI50 [5] was > 74.5 µM (inactive) and the GI50 [6] was > 100 µM (inactive). For the same compound, the GI50 [7] was > 100 µM (inactive), the GI50 [8] was > 100 µM (inactive) and the GI50 [10] was over 100 µM. For the same compound, the GI50 [11] was > 100 µM (inactive), the GI50 [18] was > 100 µM (inactive) and the GI50 [12] was > 100 µM (inactive). For the same compound, the GI50 [13] was > 100 µM (inactive), the GI50 [14] was > 100 µM (inactive) and the GI50 [15] was > 100 µM (inactive). For the same compound, the GI50 [16] was > 100 µM (inactive).
With `N#Cc1c(-c2ccc(Cl)cc2)cc(-c2ccc(Nc3ccnc4cc(Cl)ccc34)cc2)nc1N` the GI50 [1] was 41.7 µM (inactive), the GI50 [2] was > 100 µM (inactive) and the GI50 [3] was > 100 µM (inactive). The GI50 [4] was > 100 µM (inactive), the GI50 [5] was > 100 µM (inactive) and the GI50 [6] was > 100 µM (inactive). For the same compound, the GI50 [7] was > 100 µM (inactive), the GI50 [8] was 38.2 µM (inactive) and the GI50 [9] was > 100 µM (inactive). For the same compound, the GI50 [19] was > 100 µM (inactive), the GI50 [10] was over 100 µM and the GI50 [11] was > 100 µM (inactive). The GI50 [12] was > 100 µM (inactive), the GI50 [13] was > 100 µM (inactive) and the GI50 [14] was 87.7 µM (inactive). For the same compound, the GI50 [15] was > 100 µM (inactive), the GI50 [16] was > 100 µM (inactive) and the GI50 [17] was > 100 µM (inactive).
`CC(=O)Oc1cc2c(cc1OC(C)=O)OCC(c1ccc(C)cc1)C2` (configuration not stated) was tested, and the GI50 [1] was 2.64 µM (inactive), the GI50 [2] was 8.69 µM (inactive) and the GI50 [3] was 8.85 µM (inactive). For the same compound, the GI50 [4] was 21.7 µM (inactive), the GI50 [5] was 20.3 µM (inactive) and the GI50 [6] was 11.7 µM (inactive). For the same compound, the GI50 [7] was 28.7 µM (inactive), the GI50 [8] was 13 µM (inactive) and the GI50 [19] was 11.6 µM (inactive). For the same compound, the GI50 [10] was 19.6 µM, the GI50 [11] was 15.1 µM (inactive) and the GI50 [18] was 6.12 µM (inactive). For the same compound, the GI50 [12] was 12.6 µM (inactive), the GI50 [13] was 21.6 µM (inactive) and the GI50 [14] was 19.5 µM (inactive). The GI50 [15] was 25.5 µM (inactive) and the GI50 [16] was 17.1 µM (inactive).
`c1cc2c3c(c1)c1cc4c(cc1c[n+]3CC2)OCO4` [ANHYDROLYCORINIUM CHLORIDE] was tested, and the GI50 [1] was 2.3 µM (inactive), the GI50 [2] was 2.37 µM (inactive) and the GI50 [3] was 25.3 µM (inactive). For the same compound, the GI50 [4] was 12.5 µM (inactive), the GI50 [5] was 4.02 µM (inactive) and the GI50 [6] was 5.85 µM (inactive). The GI50 [7] was 0.802 µM (active), the GI50 [8] was 0.383 µM (active) and the GI50 [19] was 2.14 µM (inactive). The GI50 [10] was over 164 µM, the GI50 [11] was 3.73 µM (inactive) and the GI50 [18] was 3.79 µM (inactive). For the same compound, the GI50 [12] was 2.75 µM (inactive), the GI50 [13] was 0.582 µM (active) and the GI50 [14] was 2.48 µM (inactive). For the same compound, the GI50 [15] was > 225 µM (inactive) and the GI50 [16] was 4.47 µM (inactive).
In the case of `N=C(N)SCc1cccc([N+](=O)[O-])c1`, the GI50 [1] was 13.5 µM (inactive), the GI50 [2] was 25.1 µM (inactive) and the GI50 [3] was 20.9 µM (inactive). For the same compound, the GI50 [4] was 24.4 µM (inactive), the GI50 [5] was 57.7 µM (inactive) and the GI50 [6] was 39.5 µM (inactive). For the same compound, the GI50 [7] was 38.9 µM (inactive), the GI50 [8] was 30.3 µM (inactive) and the GI50 [19] was 22.8 µM (inactive). For the same compound, the GI50 [10] was 34.5 µM, the GI50 [11] was 34.1 µM (inactive) and the GI50 [18] was 32 µM (inactive). For the same compound, the GI50 [12] was 34.1 µM (inactive), the GI50 [13] was 24.4 µM (inactive) and the GI50 [14] was 25.5 µM (inactive). The GI50 [15] was 21.2 µM (inactive) and the GI50 [16] was 22.1 µM (inactive).
In the case of `COc1cc(/C=C2/C[C@H]3[C@@H]4CC=C5C[C@@H](O)CC[C@]5(C)[C@H]4CC[C@]3(C)NC2=O)cc(OC)c1OC`, the GI50 [1] was 5.33 µM (inactive), the GI50 [2] was 5.24 µM (inactive) and the GI50 [3] was 3.69 µM (inactive). For the same compound, the GI50 [4] was 11.9 µM (inactive), the GI50 [5] was 11.8 µM (inactive) and the GI50 [6] was 16.3 µM (inactive). For the same compound, the GI50 [7] was 19.6 µM (inactive), the GI50 [8] was 15.1 µM (inactive) and the GI50 [9] was 24.2 µM (inactive). The GI50 [19] was 5.46 µM (inactive), the GI50 [10] was 16.3 µM and the GI50 [11] was 11.8 µM (inactive). For the same compound, the GI50 [18] was 6.7 µM (inactive), the GI50 [12] was 10.9 µM (inactive) and the GI50 [13] was 30.9 µM (inactive). For the same compound, the GI50 [14] was 30.7 µM (inactive), the GI50 [15] was 15.8 µM (inactive) and the GI50 [16] was 40.3 µM (inactive). The GI50 [17] was 23.6 µM (inactive).
With `Cc1ccccc1NC(=O)c1c(C)oc2c1C(=O)c1ccccc1C2=O` the GI50 [1] was 16.5 µM (inactive), the GI50 [2] was 63.5 µM (inactive) and the GI50 [3] was 20.3 µM (inactive). For the same compound, the GI50 [4] was > 80.7 µM (inactive), the GI50 [5] was > 71.9 µM (inactive) and the GI50 [6] was 22 µM (inactive). For the same compound, the GI50 [7] was 40.3 µM (inactive), the GI50 [8] was 2.09 µM (inactive) and the GI50 [19] was 22.6 µM (inactive). The GI50 [10] was 32.1 µM, the GI50 [11] was 32.4 µM (inactive) and the GI50 [18] was 13.2 µM (inactive). The GI50 [12] was 51.5 µM (inactive), the GI50 [13] was 30.9 µM (inactive) and the GI50 [14] was 25.9 µM (inactive). For the same compound, the GI50 [16] was 22.4 µM (inactive) and the GI50 [17] was > 100 µM (inactive).
In the case of `O=C1C=C(Nc2ccc(S(=O)(=O)Nc3ncccn3)cc2)c2ccccc2C1=O`, the GI50 [1] was 17.8 µM (inactive), the GI50 [2] was 30.3 µM (inactive) and the GI50 [3] was 33 µM (inactive). The GI50 [4] was 32.1 µM (inactive), the GI50 [5] was 26.5 µM (inactive) and the GI50 [6] was 17.9 µM (inactive). For the same compound, the GI50 [7] was 20.6 µM (inactive), the GI50 [8] was 21.8 µM (inactive) and the GI50 [19] was 37.6 µM (inactive). The GI50 [10] was 22.5 µM, the GI50 [11] was 20.7 µM (inactive) and the GI50 [18] was 18.2 µM (inactive). For the same compound, the GI50 [12] was 18 µM (inactive), the GI50 [13] was 18.4 µM (inactive) and the GI50 [14] was 27.3 µM (inactive). For the same compound, the GI50 [16] was 15.6 µM (inactive) and the GI50 [17] was 37.4 µM (inactive).
With `CN1CCC23c4ccccc4NC1C21CCN(C)C3Nc2ccccc21` the GI50 [1] was > 375 µM (inactive), the GI50 [2] was > 218 µM (inactive) and the GI50 [3] was 94.6 µM (inactive). The GI50 [4] was 75.5 µM (inactive), the GI50 [5] was > 375 µM (inactive) and the GI50 [6] was > 375 µM (inactive). The GI50 [7] was > 375 µM (inactive), the GI50 [8] was > 375 µM (inactive) and the GI50 [19] was 157 µM (inactive). For the same compound, the GI50 [10] was over 375 µM, the GI50 [11] was > 375 µM (inactive) and the GI50 [18] was > 174 µM (inactive). The GI50 [12] was > 375 µM (inactive), the GI50 [13] was 268 µM (inactive) and the GI50 [14] was > 355 µM (inactive). The GI50 [15] was > 375 µM (inactive) and the GI50 [16] was 130 µM (inactive).
For `CCCCCCCCCCCCCCCCCCOCC(O)CO` (configuration not stated) [BATILOL], the GI50 [1] was 9.18 µM (inactive), the GI50 [2] was 3.61 µM (inactive) and the GI50 [3] was 11.7 µM (inactive). For the same compound, the GI50 [4] was 3.57 µM (inactive), the GI50 [5] was 13.6 µM (inactive) and the GI50 [6] was 21.7 µM (inactive). The GI50 [7] was 18.6 µM (inactive), the GI50 [8] was 21.9 µM (inactive) and the GI50 [19] was 4.9 µM (inactive). The GI50 [10] was over 25 µM, the GI50 [11] was > 20.2 µM (inactive) and the GI50 [18] was 2.07 µM (inactive). The GI50 [12] was 12.4 µM (inactive), the GI50 [13] was 21.6 µM (inactive) and the GI50 [14] was > 25 µM (inactive). The GI50 [15] was > 25 µM (inactive) and the GI50 [16] was > 22.4 µM (inactive).
For `O=C1/C(=C/c2ccc3c(c2)CCC3)Cc2cc3c(cc21)CCC3`, the GI50 [1] was > 100 µM (inactive), the GI50 [2] was > 100 µM (inactive) and the GI50 [3] was < 0.01 µM (active). The GI50 [5] was > 100 µM (inactive), the GI50 [6] was > 100 µM (inactive) and the GI50 [7] was > 100 µM (inactive). For the same compound, the GI50 [8] was > 100 µM (inactive), the GI50 [9] was 3.53 µM (inactive) and the GI50 [19] was > 100 µM (inactive). For the same compound, the GI50 [10] was over 100 µM, the GI50 [11] was > 100 µM (inactive) and the GI50 [18] was > 100 µM (inactive). The GI50 [12] was > 100 µM (inactive), the GI50 [13] was > 100 µM (inactive) and the GI50 [14] was > 100 µM (inactive). The GI50 [15] was > 100 µM (inactive), the GI50 [16] was > 100 µM (inactive) and the GI50 [17] was > 100 µM (inactive).
